Assays:
Assay type in all cases: in vivo
Hartley guinea pigs [1] = experiment: Test Example 3 (safety test), primary stimulation to the skin; settings: 1 wt % solution in acetone; female guinea pigs
Protocol: (§1) Test Example 3 (safety test) Method Five (5) or ten (10) Hartley guinea pigs (female, body weight: 350-400 g) are used. A 1 wt % solution of each test compound in acetone was prepared, and the solution was tested with respect to its sensitizing potential, primary stimulation to the skin, and photo-toxicity. As test compounds, three compounds, i.e., compound Nos. 1, 10, and 14 in Table 1, were used.

Hartley guinea pigs [2] = experiment: Test Example 3 (safety test), sensitization, maximization method; settings: 1 wt % solution in acetone; induction at 10 wt %; female guinea pigs
Protocol: as §1, with “were used. The sensitization test was performed in accordance with the maximization method proposed by Magnusson [Magnusson, B and Kligman, A.M.,; "The identification of contact allergens by animal assay. The guinea pig maximization test" (J. Inv. Derm., 52, p268-276 (1969))]. The induction of sensitization was performed at a concentration of 10 wt %.” for “were used.”

Hartley guinea pigs [3] = experiment: Test Example 3 (safety test), photo-toxicity; settings: 1 wt % solution in acetone; light source FL-40S.BLB (300-400 nm); female guinea pigs
Protocol: Test Example 3 (safety test)
Five (5) or ten (10) Hartley guinea pigs (female, body weight: 350-400 g) are used. A 1 wt % solution of each test compound in acetone was prepared, and the solution was tested with respect to its sensitizing potential, primary stimulation to the skin, and photo-toxicity.
As test compounds, three compounds, i.e., compound Nos. 1, 10, and 14 in Table 1, were used.
The positive control compound used for the photo-toxicity was an ethanol solution containing 100 ppm of 8-methoxypsoralen (product of Aldrich). The light source used was FL-40S.BLB (300-400 nm; manufactured by Toshiba).

Row | Compound | Primary stimulation (Hartley guinea pigs [1]) | Sensitization (Hartley guinea pigs [2]) | Photo-toxicity (Hartley guinea pigs [3])
1 | CCCCCCCCCCCCNCc1ccc2c(c1)OCO2 [Compound No. 1] | 0/5 | 0/10 | 0/5
2 | CCCCCCCCCCCCNCc1ccc(OC)c(O)c1 [Compound No. 10, N-lauryl-3-hydroxy-4-methoxybenzylamine] | 0/5 | 0/10 | 0/5
3 | CCCCCCCCCCCCN(C)Cc1cc(OC)c(OC)cc1OC [Compound No. 14] | 0/5 | 0/10 | 0/5
